The nature of series [1]: AUClast in Balb/c nude mouse at 5 mg/kg, ip. Type of series: ADME, organism-based. The arrangement: dose 5 mg/kg, time 0 - last, route intraperitoneal. As to conditions: in vivo.
The target of series [2] is T1, Protein deacetylase HDAC6 (Homo sapiens, UniProt Q9UBN7).
T1 sequence (Q9UBN7 whole entry): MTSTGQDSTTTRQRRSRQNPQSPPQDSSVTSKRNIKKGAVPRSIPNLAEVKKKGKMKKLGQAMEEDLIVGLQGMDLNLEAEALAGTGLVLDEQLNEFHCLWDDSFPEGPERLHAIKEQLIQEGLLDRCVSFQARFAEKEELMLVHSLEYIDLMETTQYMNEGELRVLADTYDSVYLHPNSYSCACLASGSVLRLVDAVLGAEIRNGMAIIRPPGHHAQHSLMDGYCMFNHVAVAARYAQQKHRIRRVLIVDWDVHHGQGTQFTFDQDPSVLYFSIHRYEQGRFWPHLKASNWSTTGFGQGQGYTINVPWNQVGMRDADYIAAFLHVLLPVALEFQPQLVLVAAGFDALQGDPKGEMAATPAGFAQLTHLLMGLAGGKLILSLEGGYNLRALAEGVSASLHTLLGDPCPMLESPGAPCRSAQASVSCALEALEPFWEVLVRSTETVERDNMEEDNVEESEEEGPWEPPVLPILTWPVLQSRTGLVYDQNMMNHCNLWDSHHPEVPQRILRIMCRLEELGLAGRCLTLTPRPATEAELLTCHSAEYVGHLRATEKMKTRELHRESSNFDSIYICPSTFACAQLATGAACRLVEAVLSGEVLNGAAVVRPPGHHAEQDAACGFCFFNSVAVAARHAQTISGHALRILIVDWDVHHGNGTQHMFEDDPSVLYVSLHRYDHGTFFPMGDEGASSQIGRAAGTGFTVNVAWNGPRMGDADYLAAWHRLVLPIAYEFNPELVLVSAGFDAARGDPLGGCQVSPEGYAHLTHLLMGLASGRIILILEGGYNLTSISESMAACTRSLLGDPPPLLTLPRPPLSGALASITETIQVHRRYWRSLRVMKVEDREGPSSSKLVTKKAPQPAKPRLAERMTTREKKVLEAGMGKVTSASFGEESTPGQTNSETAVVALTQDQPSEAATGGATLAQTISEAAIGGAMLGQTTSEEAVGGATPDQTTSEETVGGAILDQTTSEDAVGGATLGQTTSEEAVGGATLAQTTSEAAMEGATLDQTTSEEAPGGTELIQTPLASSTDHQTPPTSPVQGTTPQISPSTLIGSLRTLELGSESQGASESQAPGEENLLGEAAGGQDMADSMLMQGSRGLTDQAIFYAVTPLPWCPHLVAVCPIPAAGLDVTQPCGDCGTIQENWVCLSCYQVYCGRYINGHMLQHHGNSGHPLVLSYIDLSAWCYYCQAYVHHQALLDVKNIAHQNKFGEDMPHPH
As to the kind of experiment: Inhibition of full length recombinant human HDAC6 using fluorescent-labeled peptide as substrate by electrophoretic mobility shift assay. For orientation: In EMSA bound probe runs differently from free probe, usually more slowly.

Series [3] can be described thus: Cmax in Balb/c nude mouse at 5 mg/kg, ip. Type of series: ADME, organism-based. The following applies: in vivo. Further details: dose 5 mg/kg, route intraperitoneal.
Series [4] can be described thus: Bioavailability in Balb/c nude mouse at 5 mg/kg, ip. The series is classed as ADME, organism-based. The following applies: in vivo.
For the next series, the target named is T2, Histone deacetylase 11 (Homo sapiens, UniProt Q96DB2).
T2 sequence (Q96DB2 whole entry): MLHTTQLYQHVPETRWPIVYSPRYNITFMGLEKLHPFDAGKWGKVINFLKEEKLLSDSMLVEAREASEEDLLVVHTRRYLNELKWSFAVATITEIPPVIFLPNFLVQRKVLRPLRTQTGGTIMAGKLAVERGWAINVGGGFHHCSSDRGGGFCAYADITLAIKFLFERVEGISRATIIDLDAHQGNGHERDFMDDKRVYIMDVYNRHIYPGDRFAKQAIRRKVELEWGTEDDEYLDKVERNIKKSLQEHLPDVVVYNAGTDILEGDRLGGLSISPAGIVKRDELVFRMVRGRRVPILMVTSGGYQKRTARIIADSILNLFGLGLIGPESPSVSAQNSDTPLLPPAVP
As to the kind of experiment: Inhibition of full length recombinant human HDAC11 expressed in baculoviral expression system using FAM-RHKK as substrate by electrophoretic mobility shift assay.

A short description of series [5]: Intrinsic clearance in mouse liver microsomes. The series is classed as ADME, microsome. The following applies: read-out: CLH. Background: Liver microsomes are a subcellular fraction often used to study metabolism.
A short description of series [6]: Half life in Balb/c nude mouse at 5 mg/kg, ip. The series is classed as ADME, organism-based. The following applies: in vivo.
Series [7] in a line: Clearance in Balb/c nude mouse at 1 mg/kg, iv. The series is classed as ADME, organism-based. The following applies: in vivo.
Series [8] in a line: Initial plasma concentration in Balb/c nude mouse at 1 mg/kg, iv. Type of series: ADME, organism-based.
Series [9] in a line: AUClast in Balb/c nude mouse at 1 mg/kg, iv. Type of series: ADME, organism-based. Further details: dose 1 mg/kg, time 0 - last, route intravenous. The following applies: in vivo.
The nature of series [10]: Volume of distribution at steady state in Balb/c nude mouse at 1 mg/kg, iv. Type of series: ADME, organism-based. As to conditions: in vivo, read-out: Vdss.
Series [11] in a line: Half life in Balb/c nude mouse at 1 mg/kg, iv. The following applies: in vivo. The series is classed as ADME, organism-based.

In general, AUC(0-t) refers to the area under the concentration-time curve up to a stated or last time point. A word on the IC50: it is the concentration needed to halve the response being measured. One may read the Cmax as the peak of the concentration-time curve. A word on the bioavailability: it is the share of a dose that reaches the circulation, judged against a reference dose that is usually intravenous. As a reminder, the half-life is the time in which the quantity being followed falls by half. As usually defined, the clearance is the rate of elimination divided by the concentration. Low values mean inefficient removal, high ones efficient removal.

Each structure is given as a SMILES string. Where only a bound is given, the exact number is not on record here.

For the compound `O=C(NO)c1cccc2c1CN(c1nc3ccccc3[nH]1)C2`, the AUC(0-t) in series [1] was 3.8 µM·h. Further, the IC50 in series [2] was above 10000 nM; at Histone deacetylase 11 it was 170 nM. In addition, the Cmax in series [3] was determined as 4.2 µM. Further, the bioavailability in series [4] is 81%. Moreover, the microsomal CLint in [5] is 17 µL/min/mg. In series [6], this compound gave a half-life of 10.2 h.
The compound `O=C(NO)c1ccc2c(c1)CN(c1nc3ccccc3[nH]1)CC2` showed a clearance in [7] of 42 mL/min/kg. Besides, in series [8], the C0 came to 3.5 µM. The AUC(0-t) in [9] was determined as 1 µM·h. Further, the IC50 in series [2] amounted to 4 nM; at Histone deacetylase 11, 2100 nM. Further, in series [10], the Vd came out at 18 L/kg. Besides, the half-life in series [11] is 9.4 h.
